Experimental data published in patent US20260007131A1, “HERBICIDAL COMPOSITION CONTAINING DIFLUOROBUTENOIC ACID AMIDE COMPOUND” (ISHIHARA SANGYO KAISHA, LTD., priority 2022, published 2026).

Experiments:
Format in all cases: in vivo
[1] = tested on: Italian ryegrass (Lolium multiflorum); experiment: Herbicidal effect on Italian ryegrass (soil treatment)
Description: (§1) Upland soil was put into a 1/300,000 hectare (ha) pot, seeds of barnyardgrass (Echinochloa crus-galli) were sown, and about 1.5 cm of cover soil was put. […] On the next day after sowing, the spray solution was sprayed with a small sprayer for soil treatment.
(§2) Upland soil was put into a 1/300,000 hectare (ha) pot, seeds of barnyardgrass (Echinochloa crus-galli), crabgrass (Digitaria sanguinalis), green foxtail (Setaria viridis), Italian ryegrass (Lolium multiflorum), redroot pigweed (Amaranthus retroflexus) and common chickweed (Stellaria media) were sown, and about 1.5 cm of cover soil was put.

[2] = tested on: common chickweed (Stellaria media); experiment: Herbicidal effect on common chickweed (foliar treatment); conditions: Comparative Test 1, common chickweed, read-out: Growth inhibition rate
Protocol: (§3) Upland soil was put into a 1/300,000 hectare (ha) pot, seeds of barnyardgrass (Echinochloa crus-galli) were sown, and about 1.5 cm of cover soil was put. The barnyardgrass was grown for 10 days in a greenhouse until it reached a predetermined leaf stage. […] The spray solution was sprayed over the grown barnyardgrass with a small sprayer for foliar treatment.
(§4) Upland soil was put into a 1/300,000 hectare (ha) pot, seeds of barnyardgrass (Echinochloa crus-galli), crabgrass (Digitaria sanguinalis), green foxtail (Setaria viridis), wild oat (Avena fatua), Italian ryegrass (Lolium multiflorum), foxtail shortawn (Alopecurus aequalis), annual bluegrass (Poa annua), redroot pigweed (Amaranthus retroflexus), common chickweed (Stellaria media) common lambsquarters (Chenopodium album) and black nightshade (Solanum nigrum) were sown, and about 1.5 cm of cover soil was put. The plants were grown for 10 days in a greenhouse until they reached a predetermined leaf stage.

[3] = tested on: black nightshade (Solanum nigrum); experiment: Herbicidal effect on black nightshade (foliar treatment); conditions: Comparative Test 1, black nightshade, read-out: Growth inhibition rate
Protocol: as §3, §4

[4] = tested on: common lambsquarters (Chenopodium album); experiment: Herbicidal effect on common lambsquarters (foliar treatment); conditions: Comparative Test 1, common lambsquarters, read-out: Growth inhibition rate
Protocol: as §3, §4

[5] = tested on: crabgrass (Digitaria sanguinalis); experiment: Herbicidal effect on crabgrass (soil treatment)
Description: as §1, §2

[6] = tested on: common chickweed (Stellaria media); experiment: Comparative Test 2: herbicidal effect on common chickweed (soil treatment); conditions: Comparative Test 2, common chickweed, read-out: Growth inhibition rate
Description: Upland soil was put into a 1/300,000 hectare (ha) pot, seeds of barnyardgrass (Echinochloa crus-galli), crabgrass (Digitaria sanguinalis), green foxtail (Setaria viridis), Italian ryegrass (Lolium multiflorum), redroot pigweed (Amaranthus retroflexus) and common chickweed (Stellaria media) were sown, and about 1.5 cm of cover soil was put. The Invention Compound (Aa-1-1, Aa-9-2) or the compound 4b described in Patent Document 1 was weighed to achieve a predetermined active ingredient dose, dissolved in acetone (containing 0.5 vol % of surfactant (TritonX-100: manufactured by Kishida Chemical Co., Ltd.)) or dimethyl sulfoxide and diluted with water (containing 0.1 vol % of agricultural spreader (Surfactant WK: manufactured by MARUWA Biochemical Co., Ltd.) in an amount corresponding to 1,000 liter per hectare, to prepare each spray solution. On the next day after sowing, each spray solution was sprayed with a small sprayer for soil treatment. On the 14th day after the soil treatment, the state of growth of each plant was visually observed, and the herbicidal effect was evaluated in accordance with the growth inhibition rate (%) of from 0 (equivalent to the non-treated area) to 100 (complete kill).

[7] = tested on: crabgrass (Digitaria sanguinalis); experiment: Herbicidal effect on crabgrass (foliar treatment); conditions: Comparative Test 1, crabgrass, read-out: Growth inhibition rate
Protocol: as §3, §4

[8] = tested on: redroot pigweed (Amaranthus retroflexus); experiment: Herbicidal effect on redroot pigweed (foliar treatment); conditions: Comparative Test 1, redroot pigweed, read-out: Growth inhibition rate
Protocol: as §3, §4

[9] = tested on: Italian ryegrass (Lolium multiflorum); experiment: Herbicidal effect on Italian ryegrass (foliar treatment); conditions: Comparative Test 1, Italian ryegrass, read-out: Growth inhibition rate
Protocol: as §3, §4

[10] = tested on: foxtail shortawn (Alopecurus aequalis); experiment: Herbicidal effect on foxtail shortawn (foliar treatment); conditions: Comparative Test 1, foxtail shortawn, read-out: Growth inhibition rate
Protocol: as §3, §4

[11] = tested on: redroot pigweed (Amaranthus retroflexus); experiment: Herbicidal effect on redroot pigweed (soil treatment)
Description: as §1, §2

[12] = tested on: barnyardgrass (Echinochloa crus-galli); experiment: Herbicidal effect on barnyardgrass (foliar treatment); conditions: Comparative Test 1, barnyardgrass, read-out: Growth inhibition rate
Protocol: as §3, §4

[13] = tested on: green foxtail (Setaria viridis); experiment: Herbicidal effect on green foxtail (foliar treatment); conditions: Comparative Test 1, green foxtail, read-out: Growth inhibition rate
Protocol: as §3, §4

[14] = tested on: barnyardgrass (Echinochloa crus-galli); experiment: Herbicidal effect on barnyardgrass (soil treatment); conditions: Comparative Test 2, barnyardgrass, read-out: Growth inhibition rate
Description: as §1, §2

[15] = tested on: annual bluegrass (Poa annua); experiment: Herbicidal effect on annual bluegrass (foliar treatment); conditions: Comparative Test 1, annual bluegrass, read-out: Growth inhibition rate
Protocol: as §3, §4

[16] = tested on: green foxtail (Setaria viridis); experiment: Herbicidal effect on green foxtail (soil treatment); conditions: Comparative Test 2, green foxtail, read-out: Growth inhibition rate
Description: as §1, §2

[17] = tested on: wild oat (Avena fatua); experiment: Herbicidal effect on wild oat (foliar treatment); conditions: Comparative Test 1, wild oat, read-out: Growth inhibition rate
Protocol: as §3, §4

[18] = Comparative Test 2, Italian ryegrass, read-out: Growth inhibition rate
[19] = Comparative Test 2, crabgrass, read-out: Growth inhibition rate
[20] = Comparative Test 2, redroot pigweed, read-out: Growth inhibition rate

COC(=O)[C@H]1C[C@H](NC(=O)C(F)(F)/C=C/c2cc(C)cc(F)c2)C1 [Aa-9-2]
50 to 70%: inhibition at 500 g/ha [3]
≥ 70%: inhibition at 500 g/ha ([1]; Italian ryegrass, 14th day, read-out: growth inhibition rate) | inhibition at 500 g/ha ([5]; crabgrass, 14th day, read-out: growth inhibition rate) | inhibition at 500 g/ha ([11]; redroot pigweed, 14th day, read-out: growth inhibition rate)
70 to 90%: inhibition at 1000 g/ha [3] | inhibition at 500 g/ha [4] | inhibition at 1000 g/ha [4] | inhibition at 500 g/ha [8] | inhibition at 1000 g/ha [8]
≥ 90%: inhibition at 500 g/ha [1, 18] | inhibition at 1000 g/ha [1, 18] | inhibition at 500 g/ha [2] | inhibition at 1000 g/ha [2] | inhibition at 500 g/ha [5, 19] | inhibition at 1000 g/ha [5, 19] | inhibition at 500 g/ha [6] | inhibition at 1000 g/ha [6] | inhibition at 500 g/ha [7] | inhibition at 1000 g/ha [7] | inhibition at 500 g/ha [9] | inhibition at 1000 g/ha [9] | inhibition at 500 g/ha [10] | inhibition at 1000 g/ha [10] | inhibition at 500 g/ha [11, 20] | inhibition at 1000 g/ha [11, 20] | inhibition at 500 g/ha [12] | inhibition at 1000 g/ha [12] | inhibition at 500 g/ha [13] | inhibition at 1000 g/ha [13] | inhibition at 500 g/ha [14] | inhibition at 1000 g/ha [14] | inhibition at 500 g/ha [15] | inhibition at 1000 g/ha [15] | inhibition at 500 g/ha [16] | inhibition at 1000 g/ha [16] | inhibition at 500 g/ha [17] | inhibition at 1000 g/ha [17]

CN(C(=O)/C=C/c1ccccc1)C1CCC1 [Compound 4b, reference compound]
30 to 50%: inhibition at 1000 g/ha [2] | inhibition at 1000 g/ha [8]
< 30%: inhibition at 500 g/ha [1, 18] | inhibition at 1000 g/ha [1, 18] | inhibition at 500 g/ha [2] | inhibition at 500 g/ha [3] | inhibition at 500 g/ha [4] | inhibition at 1000 g/ha [4] | inhibition at 500 g/ha [5, 19] | inhibition at 1000 g/ha [5, 19] | inhibition at 500 g/ha [6] | inhibition at 1000 g/ha [6] | inhibition at 500 g/ha [7] | inhibition at 1000 g/ha [7] | inhibition at 500 g/ha [8] | inhibition at 500 g/ha [9] | inhibition at 1000 g/ha [9] | inhibition at 500 g/ha [10] | inhibition at 1000 g/ha [10] | inhibition at 500 g/ha [11, 20] | inhibition at 1000 g/ha [11, 20] | inhibition at 500 g/ha [12] | inhibition at 1000 g/ha [12] | inhibition at 500 g/ha [13] | inhibition at 1000 g/ha [13] | inhibition at 500 g/ha [14] | inhibition at 1000 g/ha [14] | inhibition at 500 g/ha [15] | inhibition at 1000 g/ha [15] | inhibition at 500 g/ha [16] | inhibition at 1000 g/ha [16] | inhibition at 500 g/ha [17] | inhibition at 1000 g/ha [17]
≥ 90%: inhibition at 1000 g/ha [3]
